According to paper PMC10819243 (Pharmaceutics, 2024):
Where two headings read alike, the source gives them in different places.

Experiments:
[1] = tested on: HDF (normal fibroblast cell line); experiment: MTT assay, HDF; type: cell-based, human; conditions: MTT assay, HDF normal fibroblast cell line, (±s) standard deviation
[2] = tested on: HeLa; experiment: MTT assay, HeLa; type: cell-based; conditions: for Selectivity Index HeLa: IC50 for normal cell line (HDF)/IC50 for HeLa; for IC50: Homo sapiens, MTT assay, HeLa cervix carcinoma, (±s) standard deviation
[3] = tested on: A-549; experiment: MTT assay, A-549; type: cell-based; conditions: for IC50: Homo sapiens, A549, MTT assay, A-549 lung carcinoma, (±s) standard deviation; for Selectivity Index A-549: IC50 for normal cell line (HDF)/IC50 for A-549
[4] = tested on: MCF-7; experiment: MTT assay, MCF-7; type: cell-based; conditions: for Selectivity Index MCF-7: IC50 for normal cell line (HDF)/IC50 for MCF-7; for IC50: Homo sapiens, MCF7, MTT assay, MCF-7 breast carcinoma, (±s) standard deviation
[5] = tested on: KB; experiment: MTT assay, KB; type: cell-based; conditions: for Selectivity Index KB: IC50 for normal cell line (HDF)/IC50 for KB; for IC50: Homo sapiens, MTT assay, KB nasopharynx carcinoma, (±s) standard deviation
[6] = tested on: HeLa, KB, MCF-7, A-549 and HDF cell lines; experiment: MTT assay, statements over several tested cell lines; type: cell-based; conditions: for times less active than mother OA (1): over the tested cell lines
[7] = ratio of IC50 values vs oleanolic acid (1)
[8] = summary over the tested cell lines, read-out: IC50 values for the tested cell lines (range or summary)
[9] = one approximate value or range for the four cancer cell lines, apart from HDF, read-out: IC50 for HeLa, KB, MCF-7, and A-549 cancer cell lines

SMILES | IC50 ([1]; Homo sapiens, Fibroblast) | Selectivity Index HeLa [2] | IC50 [3] | Selectivity Index A-549 [3] | Selectivity Index MCF-7 [4] | Selectivity Index KB [5] | IC50 [2] | IC50 [4] | fold as active as OA (1), MCF-7 [4, 7] | IC50 [5] | fold as active as OA (1), KB [5, 7] | times less active than mother OA (1) [6] | IC50 [6, 8] | IC50 [1] | IC50 [6, 9]
CC1(C)CC[C@]2(C(=O)O)CC[C@]3(C)C(=CC[C@@H]4[C@@]5(C)CC[C@H](O)C(C)(C)[C@@H]5CC[C@]43C)[C@@H]2C1 [Compound 1, oleanolic acid, reference compound] | 17.9 µM |  |  |  |  |  |  |  |  |  |  |  |  |  | 
COC(=O)C12CCC(C)(C)CC1C1=CCC3C4(C)CCC(=NO)C(C)(C)C4CCC3(C)C1(C)CC2 (stereo not drawn) [Compound 2, methyl oleanonate oxime] | 21.1 µM | 1.60 | 13 µM | 1.62 | 1.38 | 1.70 |  |  |  |  |  |  |  |  | 
COC(=O)[C@]12CCC(C)(C)CC1C1=CCC3[C@@]4(C)CC/C(=N\OC(C)=O)C(C)(C)C4CC[C@@]3(C)[C@]1(C)CC2 (stereo partly drawn) [Compound 5a, 3-Acetoxyiminoolean-12-en-28-oic acid methyl ester] | 29 µM | 2.62 | 10.6 µM | 2.74 | 2.76 | 2.55 | 11.1 µM | 10.5 µM | about 1.3 fold | 11.4 µM | about 1.3 fold |  |  |  | 
COC(=O)[C@]12CCC(C)(C)CC1C1=CCC3[C@@]4(C)CC/C(=N\OC(=O)CCl)C(C)(C)C4CC[C@@]3(C)[C@]1(C)CC2 (stereo partly drawn) [Compound 5b, 3-Chloroacetoxyiminoolean-12-en-28-oic acid methyl ester] | 37 µM | 1.87 | 19.8 µM | 1.87 | 2.05 | 2.01 | 19.8 µM | 18 µM |  | 18.4 µM |  | 1.7–2.2 fold |  |  | 
CCC(=O)O/N=C1\CC[C@@]2(C)C(CC[C@]3(C)C2CC=C2C4CC(C)(C)CC[C@]4(C(=O)OC)CC[C@]23C)C1(C)C (stereo partly drawn) [Compound 5c, 3-Propionoxyiminoolean-12-en-28-oic acid methyl ester] | 39.9 µM | 1.05 | 36.2 µM | 1.10 | 1.05 | 1.03 | 38.1 µM | 38.1 µM |  | 38.8 µM |  | 2.2–4.1 fold |  |  | 
COC(=O)[C@]12CCC(C)(C)CC1C1=CCC3[C@@]4(C)CC/C(=N\OC(=O)c5ccccc5)C(C)(C)C4CC[C@@]3(C)[C@]1(C)CC2 (stereo partly drawn) [Compound 5d, 3-Benzoxyiminoolean-12-en-28-oic acid methyl ester] | 113 µM | 1.33 | 73.9 µM | 1.53 | 1.36 | 1.36 | 84.9 µM | 83.3 µM |  | 83.2 µM |  |  | 73.9 to 113 µM |  | 
COC(=O)[C@]12CCC(C)(C)CC1C1=CCC3[C@@]4(C)CC/C(=N\OC(=O)c5cccc([N+](=O)[O-])c5)C(C)(C)C4CC[C@@]3(C)[C@]1(C)CC2 (stereo partly drawn) [Compound 5e] | 38 µM | 1.88 | 21.1 µM | 1.80 | 1.74 | 1.59 | 20.1 µM | 21.8 µM |  | 23.9 µM |  |  | 20.1 to 38 µM |  | 
COC(=O)[C@]12CCC(C)(C)CC1C1=CCC3[C@@]4(C)CC/C(=N\OC(=O)c5ccc([N+](=O)[O-])cc5)C(C)(C)C4CC[C@@]3(C)[C@]1(C)CC2 (stereo partly drawn) [Compound 5f, 3-(4′-Nitro)benzoxyiminoolean-12-en-28-oic acid methyl ester] | 132 µM | 2.13 | 69.9 µM | 1.89 | 2.15 | 2.18 | 62 µM | 61.4 µM |  | 60.7 µM |  |  | 60.7 to 132 µM |  | 
COC(=O)[C@]12CCC(C)(C)CC1C1=CC(=O)C3[C@@]4(C)CC/C(=N\OC(C)=O)C(C)(C)C4CC[C@@]3(C)[C@]1(C)CC2 (stereo partly drawn) [Compound 6a, 3-Acetoxyimino-11-oxoolean-12-en-28-oic acid methyl ester] | ~49 µM | 1.79 | 28.2 µM | 1.74 | 1.75 | 1.76 | 27.4 µM | 28 µM |  | 27.9 µM |  |  |  | 49.1 µM | ~28 µM
COC(=O)[C@]12CCC(C)(C)CC1C1=CC(=O)C3[C@@]4(C)CC/C(=N\OC(=O)CCl)C(C)(C)C4CC[C@@]3(C)[C@]1(C)CC2 (stereo partly drawn) [Compound 6b, 3-Chloroacetoxyimino-11-oxoolean12-en-28-oic acid methyl ester] | 88 µM | 1.44 | 61.8 µM | 1.42 | 1.37 | 1.44 | 61 µM | 64.1 µM |  | 61 µM |  |  |  |  | 61 to 64 µM
CCC(=O)O/N=C1\CC[C@@]2(C)C(CC[C@]3(C)C2C(=O)C=C2C4CC(C)(C)CC[C@]4(C(=O)OC)CC[C@]23C)C1(C)C (stereo partly drawn) [Compound 6c, 3-Propionoxyimino-11-oxoolean-12-en-28-oic acid methyl ester] | ~50 µM | 2.04 | 24.2 µM | 2.03 | 2.13 | 1.97 | 24 µM | 23 µM |  | 24.8 µM |  |  |  | 49 µM | ~24 µM
COC(=O)[C@]12CCC(C)(C)CC1C1=CC(=O)C3[C@@]4(C)CC/C(=N\OC(=O)c5ccccc5)C(C)(C)C4CC[C@@]3(C)[C@]1(C)CC2 (stereo partly drawn) [Compound 6d, 3-Benzoxyimino-11-oxoolean-12-en-28-oic acid methyl ester] | ~42 µM | 1.48 | 27.8 µM | 1.51 | 1.53 | 1.54 | 28.4 µM | 27.5 µM |  | 27.2 µM |  |  |  | 42 µM | ~27 µM
COC(=O)[C@]12CCC(C)(C)CC1C1=CC(=O)C3[C@@]4(C)CC/C(=N\OC(=O)c5cccc([N+](=O)[O-])c5)C(C)(C)C4CC[C@@]3(C)[C@]1(C)CC2 (stereo partly drawn) [Compound 6e, 3-(3′-Nitro)benzoxyimino-11-oxoolean-12-en-28-oic acid methyl ester] | ~97 µM | 1.36 | 74 µM | 1.31 | 1.29 | 1.39 | 71.2 µM | 75 µM |  | 70 µM |  |  |  | 97 µM | 70 to 74 µM
COC(=O)[C@]12CCC(C)(C)CC1C1=CC(=O)C3[C@@]4(C)CC/C(=N\OC(=O)c5ccc([N+](=O)[O-])cc5)C(C)(C)C4CC[C@@]3(C)[C@]1(C)CC2 (stereo partly drawn) [Compound 6f, 3-(4′-Nitro)benzoxyimino-11-oxoolean-12-en-28-oic acid methyl ester] | 37.2 µM | 1.31 | 28.1 µM | 1.32 | 1.43 | 1.41 | 28.3 µM | 26 µM |  | 26.3 µM |  |  |  |  | 
CC(=O)O/N=C1\CC[C@@]2(C)C(CC[C@]3(C)C2CC=C2C4CC(C)(C)CC[C@]4(C(=O)N4CCOCC4)CC[C@]23C)C1(C)C (stereo partly drawn) [Compound 7a, 3-Acetoxyiminoolean-12-en-28-oic acid morpholide] | 116 µM | 1.41 | 84.9 µM | 1.37 | 1.43 | 1.42 | 82.2 µM | 81 µM |  | 81.5 µM |  | about 8 fold | ≥ 80 µM |  | 
CC1(C)CC[C@]2(C(=O)N3CCOCC3)CC[C@]3(C)C(=CCC4[C@@]5(C)CC/C(=N\OC(=O)CCl)C(C)(C)C5CC[C@]43C)C2C1 (stereo partly drawn) [Compound 7b, 3-Chloroacetoxyiminoolean12-en-28-oic acid morpholide] | 39.1 µM | 2.03 | 19.3 µM | 2.02 | 2.50 | 1.97 | 19.2 µM | 15.6 µM |  | 19.8 µM |  |  | 15 to 40 µM |  | 
CCC(=O)O/N=C1\CC[C@@]2(C)C(CC[C@]3(C)C2CC=C2C4CC(C)(C)CC[C@]4(C(=O)N4CCOCC4)CC[C@]23C)C1(C)C (stereo partly drawn) [Compound 7c, 3-Propionoxyimino-olean-12-en-28-oic acid morpholide] | 179 µM | 1.27 | 148 µM | 1.21 | 1.17 | 1.20 | 143 µM | 153 µM |  | 150 µM |  |  | 140 to 180 µM |  | 
